# Source: ChEMBL document CHEMBL5518190, “Advancements in dual-target inhibitors of PI3K for tumor therapy: Clinical progress, development strategies, prospects” (Eur J Med Chem, 2024)
# How the values were obtained:
# [1] = target: T1, Phosphatidylinositol 4,5-bisphosphate 3-kinase catalytic subunit alpha isoform (Homo sapiens, UniProt P42336)
# Histone deacetylase 8 [2] = target: T2, Histone deacetylase 8 (Homo sapiens, UniProt Q9BY41); assay: Inhibition of HDAC8 (unknown origin) using Fluoro-Substrate Peptide as substrate by fluorescence assay
# T2 sequence (Q9BY41 whole entry): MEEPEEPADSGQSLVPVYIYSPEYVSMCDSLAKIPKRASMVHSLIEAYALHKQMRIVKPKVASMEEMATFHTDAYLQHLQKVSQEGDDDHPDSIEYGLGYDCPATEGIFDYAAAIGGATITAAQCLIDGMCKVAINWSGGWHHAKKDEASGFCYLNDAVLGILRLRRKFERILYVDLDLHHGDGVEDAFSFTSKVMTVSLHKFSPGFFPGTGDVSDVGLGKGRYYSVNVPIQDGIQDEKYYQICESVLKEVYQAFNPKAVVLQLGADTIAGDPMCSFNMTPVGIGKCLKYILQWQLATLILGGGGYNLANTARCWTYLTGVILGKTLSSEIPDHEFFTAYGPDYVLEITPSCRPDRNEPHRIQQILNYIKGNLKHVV
# [3] = target: T3, Phosphatidylinositol 4,5-bisphosphate 3-kinase catalytic subunit gamma isoform (Homo sapiens, UniProt P48736)
# T3 sequence (P48736 whole entry, canonical isoform): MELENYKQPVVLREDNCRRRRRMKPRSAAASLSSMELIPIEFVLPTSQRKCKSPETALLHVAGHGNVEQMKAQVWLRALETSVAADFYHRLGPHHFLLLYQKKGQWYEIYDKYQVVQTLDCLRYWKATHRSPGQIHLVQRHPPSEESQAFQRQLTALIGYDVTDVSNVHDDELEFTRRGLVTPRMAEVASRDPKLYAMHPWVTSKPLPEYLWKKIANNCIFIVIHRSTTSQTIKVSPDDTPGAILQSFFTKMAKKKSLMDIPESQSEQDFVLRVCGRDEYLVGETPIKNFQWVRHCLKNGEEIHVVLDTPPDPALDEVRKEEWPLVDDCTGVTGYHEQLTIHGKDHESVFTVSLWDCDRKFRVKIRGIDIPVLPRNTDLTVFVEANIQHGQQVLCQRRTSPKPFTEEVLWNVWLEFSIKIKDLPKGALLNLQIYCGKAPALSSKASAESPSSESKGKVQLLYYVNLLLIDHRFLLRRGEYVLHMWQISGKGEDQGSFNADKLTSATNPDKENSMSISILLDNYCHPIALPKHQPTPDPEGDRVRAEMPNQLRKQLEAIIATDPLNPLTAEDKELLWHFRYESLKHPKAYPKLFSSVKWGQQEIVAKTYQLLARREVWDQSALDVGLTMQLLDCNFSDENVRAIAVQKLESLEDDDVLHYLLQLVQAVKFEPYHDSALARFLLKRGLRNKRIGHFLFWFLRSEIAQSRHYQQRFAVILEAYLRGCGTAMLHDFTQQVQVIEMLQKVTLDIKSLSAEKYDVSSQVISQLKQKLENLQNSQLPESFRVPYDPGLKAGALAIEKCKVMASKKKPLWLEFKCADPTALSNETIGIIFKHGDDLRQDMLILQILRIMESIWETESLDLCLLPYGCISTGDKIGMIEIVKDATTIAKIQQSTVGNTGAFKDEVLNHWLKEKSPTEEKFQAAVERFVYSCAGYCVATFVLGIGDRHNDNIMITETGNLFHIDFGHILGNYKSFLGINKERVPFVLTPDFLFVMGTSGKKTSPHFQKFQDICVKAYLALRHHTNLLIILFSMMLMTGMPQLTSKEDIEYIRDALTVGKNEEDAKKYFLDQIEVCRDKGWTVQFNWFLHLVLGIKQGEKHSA
# [4] = target: Serine/threonine-protein kinase mTOR (Homo sapiens, UniProt P42345)
# [5] = target: Mitogen-activated protein kinase 1 (Homo sapiens) (UniProt P28482); assay: Inhibition of ERK2 (unknown origin) at 1 uM relative to control by ADP-Glo assay
# [6] = target: T1, Phosphatidylinositol 4,5-bisphosphate 3-kinase catalytic subunit alpha isoform; assay: Inhibition of PI3Kalpha (unknown origin) at 1 uM by kinase-glo luminescent assay relative to control
# Histone deacetylase 8 [7] = target: T2, Histone deacetylase 8; assay: Inhibition of HDAC8 (unknown origin) by fluorescence based assay
# A-375 = assay: Antiproliferative activity against human A-375 cells assessed as reduction in cell viability measured after 48 hrs by MTT assay; assay type: functional, cell-based; conditions: A-375, 48 h
# [8] = target: T4, Phosphatidylinositol 4,5-bisphosphate 3-kinase catalytic subunit beta isoform (Homo sapiens, UniProt P42338); assay: Inhibition of human recombinant PI3Kbeta
# T4 sequence (P42338 whole entry, canonical isoform): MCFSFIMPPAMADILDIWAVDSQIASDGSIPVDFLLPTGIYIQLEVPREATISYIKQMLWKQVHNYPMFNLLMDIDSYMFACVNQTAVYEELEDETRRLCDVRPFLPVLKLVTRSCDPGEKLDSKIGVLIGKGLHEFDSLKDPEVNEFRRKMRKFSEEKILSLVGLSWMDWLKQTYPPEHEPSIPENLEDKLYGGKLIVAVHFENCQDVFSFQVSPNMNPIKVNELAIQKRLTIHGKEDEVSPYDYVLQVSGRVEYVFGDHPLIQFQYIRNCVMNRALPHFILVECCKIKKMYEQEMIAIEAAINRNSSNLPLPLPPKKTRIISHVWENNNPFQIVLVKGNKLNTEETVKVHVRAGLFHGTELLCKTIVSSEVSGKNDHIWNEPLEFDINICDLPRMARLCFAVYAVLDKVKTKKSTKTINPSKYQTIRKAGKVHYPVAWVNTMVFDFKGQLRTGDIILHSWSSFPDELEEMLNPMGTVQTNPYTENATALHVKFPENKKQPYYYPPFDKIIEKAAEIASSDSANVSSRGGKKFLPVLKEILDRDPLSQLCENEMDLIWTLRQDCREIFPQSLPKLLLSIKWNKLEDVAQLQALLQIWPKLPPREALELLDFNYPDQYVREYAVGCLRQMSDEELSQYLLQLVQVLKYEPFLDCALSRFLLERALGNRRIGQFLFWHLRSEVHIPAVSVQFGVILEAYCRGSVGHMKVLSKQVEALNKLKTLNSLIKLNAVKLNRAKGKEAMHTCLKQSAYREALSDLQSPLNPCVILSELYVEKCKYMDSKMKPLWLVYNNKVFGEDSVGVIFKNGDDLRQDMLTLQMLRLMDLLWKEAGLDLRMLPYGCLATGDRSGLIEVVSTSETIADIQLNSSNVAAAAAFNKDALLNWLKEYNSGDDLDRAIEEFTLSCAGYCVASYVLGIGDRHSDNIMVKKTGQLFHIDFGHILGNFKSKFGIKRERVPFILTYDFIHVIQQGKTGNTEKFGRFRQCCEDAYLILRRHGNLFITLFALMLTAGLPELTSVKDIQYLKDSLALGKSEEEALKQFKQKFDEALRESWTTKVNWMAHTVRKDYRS
# [9] = Cytotoxicity against human SK-ES cells assessed as reduction in cell viability incubated for 48 hrs by CellTiter-Blue reagent based […] assay; assay type: functional
# [10] = Antiproliferative activity against human A2780cis cells assessed as inhibition of cell growth incubated for 72 hrs by cell-titer glo assay; assay type: functional, cell-based
# B16 = assay: Antiproliferative activity against mouse B16 cells assessed as reduction in cell viability measured for 48 hrs by MTT assay; assay type: functional, cell-based; conditions: B16, 48 h
# Histone deacetylase 1 = Histone deacetylase 1 (Homo sapiens, UniProt Q13547); assay: Inhibition of HDAC1 (unknown origin) by fluorescence based assay
# Chain of Histone deacetylase 1 (Q13547 whole entry, canonical isoform): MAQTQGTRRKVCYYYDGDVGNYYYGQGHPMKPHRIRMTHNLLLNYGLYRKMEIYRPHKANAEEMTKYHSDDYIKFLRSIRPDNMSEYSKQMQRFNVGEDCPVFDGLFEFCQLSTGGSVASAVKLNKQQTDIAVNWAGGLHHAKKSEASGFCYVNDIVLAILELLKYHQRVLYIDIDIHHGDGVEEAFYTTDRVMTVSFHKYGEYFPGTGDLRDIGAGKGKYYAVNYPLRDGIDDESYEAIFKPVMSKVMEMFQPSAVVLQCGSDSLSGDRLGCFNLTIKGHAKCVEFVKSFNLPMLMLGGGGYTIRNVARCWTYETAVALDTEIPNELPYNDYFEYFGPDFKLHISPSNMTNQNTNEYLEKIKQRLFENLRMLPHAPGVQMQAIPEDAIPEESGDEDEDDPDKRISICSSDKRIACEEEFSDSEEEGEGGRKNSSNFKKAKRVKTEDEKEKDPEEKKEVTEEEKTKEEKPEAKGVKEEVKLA
# [11] = target: T1, Phosphatidylinositol 4,5-bisphosphate 3-kinase catalytic subunit alpha isoform; assay: Inhibition of full length wild type PI3Kalpha (unknown origin)
# [12] = target: T4, Phosphatidylinositol 4,5-bisphosphate 3-kinase catalytic subunit beta isoform; assay: Inhibition of PI3Kbeta (unknown origin) using […] as substrate preincubated for 15 mins followed by substrate addition and measured after 1 hr by HTRF assay
# [13] = target: T1, Phosphatidylinositol 4,5-bisphosphate 3-kinase catalytic subunit alpha isoform; assay: Inhibition of PI3Kalpha (unknown origin) using PIP2 as substrate preincubated for 15 mins followed by substrate addition and measured after 1 hr by HTRF assay
# [14] = target: T3, Phosphatidylinositol 4,5-bisphosphate 3-kinase catalytic subunit gamma isoform; assay: Inhibition of PI3Kgamma (unknown origin) using […] as substrate preincubated for 15 mins followed by substrate addition and measured after 1 hr by HTRF assay
# [15] = target: Epidermal growth factor receptor (Homo sapiens, UniProt P00533); assay: Inhibition of EGFR (unknown origin)
# Chain of Epidermal growth factor receptor (P00533 whole entry, canonical isoform): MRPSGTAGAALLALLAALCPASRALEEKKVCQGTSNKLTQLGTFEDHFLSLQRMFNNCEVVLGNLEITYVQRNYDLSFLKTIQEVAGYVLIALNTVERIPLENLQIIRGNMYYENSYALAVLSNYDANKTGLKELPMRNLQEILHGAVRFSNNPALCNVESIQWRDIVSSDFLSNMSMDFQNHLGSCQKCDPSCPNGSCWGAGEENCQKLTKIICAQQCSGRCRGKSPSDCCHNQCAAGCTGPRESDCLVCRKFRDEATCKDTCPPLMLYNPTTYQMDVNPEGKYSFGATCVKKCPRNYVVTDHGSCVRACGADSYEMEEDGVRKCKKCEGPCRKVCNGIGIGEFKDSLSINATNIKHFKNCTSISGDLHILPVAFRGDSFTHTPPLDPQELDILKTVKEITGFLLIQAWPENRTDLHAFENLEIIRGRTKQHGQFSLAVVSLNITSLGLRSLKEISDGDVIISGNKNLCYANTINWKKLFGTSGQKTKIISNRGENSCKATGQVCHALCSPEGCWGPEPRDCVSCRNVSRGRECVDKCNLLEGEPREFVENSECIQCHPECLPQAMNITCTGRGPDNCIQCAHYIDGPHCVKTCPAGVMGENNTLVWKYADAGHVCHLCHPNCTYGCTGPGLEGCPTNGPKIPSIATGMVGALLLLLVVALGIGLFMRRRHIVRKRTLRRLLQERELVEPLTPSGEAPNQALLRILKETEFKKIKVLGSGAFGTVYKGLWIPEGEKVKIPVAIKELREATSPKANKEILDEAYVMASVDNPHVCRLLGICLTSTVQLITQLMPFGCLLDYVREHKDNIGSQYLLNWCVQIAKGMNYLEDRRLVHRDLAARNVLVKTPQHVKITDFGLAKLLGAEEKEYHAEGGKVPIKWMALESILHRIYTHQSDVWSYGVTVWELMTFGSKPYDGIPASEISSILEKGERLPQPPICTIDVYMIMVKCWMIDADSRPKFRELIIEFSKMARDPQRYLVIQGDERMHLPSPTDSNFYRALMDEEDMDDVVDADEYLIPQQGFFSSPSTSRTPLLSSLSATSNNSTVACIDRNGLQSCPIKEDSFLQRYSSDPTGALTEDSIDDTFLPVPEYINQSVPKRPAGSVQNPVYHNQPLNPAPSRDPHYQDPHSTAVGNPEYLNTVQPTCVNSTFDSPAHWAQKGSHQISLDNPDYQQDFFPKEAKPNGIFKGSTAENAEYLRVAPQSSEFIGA
# [16] = target: T5, Phosphatidylinositol 4,5-bisphosphate 3-kinase catalytic subunit delta isoform (Homo sapiens, UniProt O00329); assay: Inhibition of PI3Kdelta (unknown origin) using PIP2 as substrate preincubated for 15 mins followed by substrate addition and measured after 1 hr by HTRF assay
# T5 sequence (O00329 whole entry): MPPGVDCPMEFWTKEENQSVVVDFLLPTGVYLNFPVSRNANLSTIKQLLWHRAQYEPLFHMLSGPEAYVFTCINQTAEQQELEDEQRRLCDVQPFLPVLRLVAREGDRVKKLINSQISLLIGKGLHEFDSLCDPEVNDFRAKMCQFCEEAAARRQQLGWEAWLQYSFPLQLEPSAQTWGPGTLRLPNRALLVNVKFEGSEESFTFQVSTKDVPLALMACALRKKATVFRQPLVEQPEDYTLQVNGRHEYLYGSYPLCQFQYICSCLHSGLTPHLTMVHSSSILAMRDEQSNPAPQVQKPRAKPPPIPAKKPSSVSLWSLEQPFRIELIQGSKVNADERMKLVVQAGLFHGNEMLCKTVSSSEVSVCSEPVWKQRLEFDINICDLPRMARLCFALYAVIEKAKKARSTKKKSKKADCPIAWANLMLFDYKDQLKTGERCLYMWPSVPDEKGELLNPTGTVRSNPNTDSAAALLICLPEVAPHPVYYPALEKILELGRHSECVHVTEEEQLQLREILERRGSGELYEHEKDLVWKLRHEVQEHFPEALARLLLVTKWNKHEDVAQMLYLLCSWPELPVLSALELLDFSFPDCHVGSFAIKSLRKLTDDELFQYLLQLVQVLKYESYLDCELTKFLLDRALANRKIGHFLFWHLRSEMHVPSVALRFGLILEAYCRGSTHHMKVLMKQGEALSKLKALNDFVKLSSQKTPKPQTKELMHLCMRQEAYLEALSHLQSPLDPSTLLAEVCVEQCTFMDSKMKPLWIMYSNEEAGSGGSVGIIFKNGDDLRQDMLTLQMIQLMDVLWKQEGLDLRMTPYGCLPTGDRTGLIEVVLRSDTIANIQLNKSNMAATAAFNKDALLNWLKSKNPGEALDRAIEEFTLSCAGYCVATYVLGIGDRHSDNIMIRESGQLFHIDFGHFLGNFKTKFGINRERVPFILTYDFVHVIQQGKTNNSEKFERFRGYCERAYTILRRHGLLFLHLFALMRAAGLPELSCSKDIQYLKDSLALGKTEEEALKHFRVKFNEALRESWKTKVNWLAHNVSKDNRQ
# T1 sequence (P42336 whole entry, canonical isoform): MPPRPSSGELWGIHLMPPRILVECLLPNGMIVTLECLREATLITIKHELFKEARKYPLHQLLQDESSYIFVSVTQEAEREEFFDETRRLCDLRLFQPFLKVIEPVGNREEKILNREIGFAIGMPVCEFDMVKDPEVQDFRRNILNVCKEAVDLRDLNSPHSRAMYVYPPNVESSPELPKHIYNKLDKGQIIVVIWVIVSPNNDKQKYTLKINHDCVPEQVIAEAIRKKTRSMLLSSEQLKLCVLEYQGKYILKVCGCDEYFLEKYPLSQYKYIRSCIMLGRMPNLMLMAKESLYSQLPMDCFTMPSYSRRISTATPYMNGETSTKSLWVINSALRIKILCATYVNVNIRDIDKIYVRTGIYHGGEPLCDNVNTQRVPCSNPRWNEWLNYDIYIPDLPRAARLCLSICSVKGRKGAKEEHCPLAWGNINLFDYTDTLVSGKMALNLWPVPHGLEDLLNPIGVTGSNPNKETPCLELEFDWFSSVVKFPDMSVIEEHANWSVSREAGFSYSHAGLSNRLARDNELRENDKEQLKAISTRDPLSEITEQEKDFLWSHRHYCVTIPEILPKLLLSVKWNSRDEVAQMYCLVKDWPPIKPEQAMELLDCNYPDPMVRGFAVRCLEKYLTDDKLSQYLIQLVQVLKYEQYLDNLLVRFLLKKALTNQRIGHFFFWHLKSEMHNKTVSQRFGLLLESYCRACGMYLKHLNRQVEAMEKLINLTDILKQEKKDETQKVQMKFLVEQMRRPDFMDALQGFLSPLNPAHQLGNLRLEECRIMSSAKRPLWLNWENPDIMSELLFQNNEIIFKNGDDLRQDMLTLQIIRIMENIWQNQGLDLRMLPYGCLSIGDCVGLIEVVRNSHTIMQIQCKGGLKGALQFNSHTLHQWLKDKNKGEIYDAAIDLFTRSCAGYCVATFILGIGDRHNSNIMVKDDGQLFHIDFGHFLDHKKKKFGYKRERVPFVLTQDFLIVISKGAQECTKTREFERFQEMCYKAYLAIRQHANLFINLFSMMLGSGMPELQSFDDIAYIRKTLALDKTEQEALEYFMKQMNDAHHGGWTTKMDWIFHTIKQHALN
compound,measurement,setting,value
COc1c(OCCCCCC(=O)NO)ccc2c1N=C(NC(=O)c1ccccc1)N1CCN=C21,IC50,[1],0.00298 µM
same,IC50,Histone deacetylase 8 [2],0.153 µM
same,IC50,[3],0.025 µM
CCn1c(=O)c(-c2cc[nH]n2)cc2c(C)nc(N)nc21 [VOXTALISIB],IC50,[4],0.15 µM
Cn1cc(-c2n[nH]c3nc(NC(=O)NC4CCCC4)ncc23)cn1,inhibition,[5],79.5%
same,inhibition,[6],4%
O=C(NO)c1ccc(/C=N/NC(=O)c2cc(N3CCOCC3)nc(-c3cccc4[nH]ncc34)n2)cc1,IC50,Histone deacetylase 8 [7],0.0665 µM
CC(C)c1cc(C(=O)N2CCc3c(sc4nc(-c5cccnc5)nc(N5CCOCC5)c34)C2)c(O)cc1O,IC50,A-375,2.29 mg/L
O=C(Nc1ncc2ncc(-c3cn[nH]c3)cc2n1)NC1CCCC1,IC50,[8],0.005 µM
CC(C)OC(=O)N1CCC(Nc2ncnc3ccc(-c4cnc(Cl)c(NS(=O)(=O)c5ccc(F)cc5F)c4)nc23)CC1,IC50,[9],0.0995 µM
same,IC50,[10],0.213 µM
CC(C)c1cc(C(=O)N2CCc3c(sc4ncnc(N5CCOCC5)c34)C2)c(O)cc1O,IC50,B16,0.47 mg/L
CC(C)[C@H]1NC(=O)C[C@H]2/C=C/CCSSC[C@@H](NC1=O)C(=O)N[C@H](Cc1ccccc1)C(=O)NCC(=O)O2,IC50,Histone deacetylase 1,0.0025 µM
same,IC50,[11],27.3 µM
CCOC(=O)c1nn(-c2ccccc2)c(=O)c2c(N)c(C#N)c(-c3cccs3)cc12,IC50,[12],32.7 µM
same,IC50,[13],10.5 µM
same,IC50,[14],30 µM
same,IC50,[15],114 µM
same,IC50,[16],7.47 µM
